# Measurements published in patent US20050058600A1, “3,3'-Diindolylmethane antiandrogenic compositions” (priority 2003, published 2005).
# What was measured:
# AR = target: T1, AR (Homo sapiens, UniProt P10275, T878A); assay: MMTV-Luc / pPSA-Luc reporter assay in LNCaP cells; assay type: cell-based
# T1 construct: 95 μL of either LNCaP cell extracts or recombinant AR protein; endogenous in cells; host or cells: LNCaP
# T1 sequence (P10275 1-920 T878A): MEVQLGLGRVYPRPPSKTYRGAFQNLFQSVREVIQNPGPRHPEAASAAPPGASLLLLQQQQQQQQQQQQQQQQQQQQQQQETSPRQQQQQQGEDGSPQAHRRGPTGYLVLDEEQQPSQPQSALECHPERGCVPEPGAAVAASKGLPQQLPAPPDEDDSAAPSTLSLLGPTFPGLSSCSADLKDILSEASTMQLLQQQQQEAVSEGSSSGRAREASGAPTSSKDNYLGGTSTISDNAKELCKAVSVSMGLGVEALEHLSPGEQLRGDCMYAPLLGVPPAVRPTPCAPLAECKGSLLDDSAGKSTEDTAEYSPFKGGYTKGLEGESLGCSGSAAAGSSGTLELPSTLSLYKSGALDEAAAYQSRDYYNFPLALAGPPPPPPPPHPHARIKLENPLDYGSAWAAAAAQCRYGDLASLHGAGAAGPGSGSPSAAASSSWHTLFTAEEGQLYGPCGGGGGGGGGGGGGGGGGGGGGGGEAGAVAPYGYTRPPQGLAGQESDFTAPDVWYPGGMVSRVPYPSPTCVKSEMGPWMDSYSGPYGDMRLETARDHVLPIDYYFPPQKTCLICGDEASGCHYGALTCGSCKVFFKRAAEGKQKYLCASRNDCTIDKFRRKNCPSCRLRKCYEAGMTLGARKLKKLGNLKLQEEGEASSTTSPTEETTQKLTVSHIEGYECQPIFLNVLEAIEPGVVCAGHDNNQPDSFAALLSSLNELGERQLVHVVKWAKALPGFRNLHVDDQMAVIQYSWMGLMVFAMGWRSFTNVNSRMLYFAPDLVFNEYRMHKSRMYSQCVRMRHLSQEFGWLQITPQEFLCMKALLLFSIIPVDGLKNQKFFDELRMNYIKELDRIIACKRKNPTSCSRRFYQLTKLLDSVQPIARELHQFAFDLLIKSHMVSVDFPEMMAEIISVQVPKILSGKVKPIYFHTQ
# Method: Plasmid Reporters and Expression Vectors. The ARE responsive luciferase reporter plasmid, pPSA-630 luciferase (pPSA-Luc) was prepared as previously described (29). pPSA-Luc contains the PSA promoter region (−630 to 12) with three AREs, all of which are critical to the activity of the pPSA-Luc promoter. The MMTV-Luc contains one consensus ARE and the expression vector, pCMV-hAR constitutively expresses a fully functional human androgen receptor. The pCMV-GFP-rAR was prepared as previously described (30).
# (§1) Transient Transfections with Reporters and Luciferase Assay. LNCaP and PC-3 cells were transfected, with some modifications, as previously described (20). For AR transactivation, cells were transfected with 0.1 μg of MMTV-Luc or pPSA-Luc per plate. Co-transfection experiments with pCMV-hAR or pCMV-GFP-rAR, 0.1 μg per plate was also used. For experiments involving GFP fluorescence imaging, treatments were not added until 30 h after transfection.
# GFP-AR = assay: Fluorescence imaging of GFP-AR in transfected PC-3 cells; assay type: cell-based
# Method: as §1
# Fluorescence Imaging. PC-3 cells were plated on cover slips in six-well culture plates at 1.5×10^5 cells per well in 5% DCC-FBS-DMEM medium. Cells were co-transfected with pCMV-GFP-rAR and pPSA-Luc or MMTV-Luc as indicated above. Cover slips were placed on microscope slides and images were taken at 1000×.
# [1] = system: benzo(a)pyrene (BP)-induced tumors of the forestomach; details: mice; cited from earlier work
# PC-3 cells = assay: PC-3 cell growth (cell counting); assay type: cell-based, human; details: 96 h treatment; same concentrations (up to 50 μM)
# Method: (§2) DIM was prepared from I3C as described (26-28) and recrystallized in toluene. The human prostate adenocarcinoma cell lines LNCaP-FGC and PC-3 were obtained from the American Type Culture Collection (Rockville, Md.). They were grown as adherent monolayers in 10% FBS-DMEM, supplemented with 4.0 g/L glucose and 3.7 g/L sodium bicarbonate in a humidified incubator at 37° C. and 5% CO2 and passaged at approximately 80% confluency. Cultures used in subsequent experiments were at less than 40 passages. Cells grown in stripped conditions were in 5% DCC-FBS-DMEM base supplemented with 4.0 g/L glucose, 3.7 g/L sodium bicarbonate, and 0.293 g/L L-Glutamine.
# (§3) Cell Growth. Before the beginning of the treatments, cells were depleted of androgen for 4-7 d in medium composed of DMEM base without phenol-red and with 4.0 g/L glucose and 3.7 g/L sodium bicarbonate. During the depletion period, medium was changed every 48 h. Treatments were administered by addition of 1 μL of 1,000× solution in DMSO per mL of medium. Once the treatment period started, medium was changed daily to counter possible loss of readily metabolized compounds.
# (§4) Cell Counting. Cells were harvested by trypsinization and resuspended in culture medium. Aliquots were diluted 50-fold in Isoton II (Coulter Corp., Miami, Fla.) and 200 μL duplicates were counted in a model Z1 Coulter particle counter and averaged.
# LNCaP cells = assay: LNCaP cell proliferation (cell counting); assay type: cell-based; details: Homo sapiens, 96 h treatment, read-out: maximal inhibition of LNCaP cell proliferation
# Method: as §2, §3, §4
# [2] = system: BP-induced pulmonary adenomas; details: mice; cited from earlier work
# PSA gene expression = assay: Northern blot of endogenous PSA mRNA in LNCaP cells; assay type: cell-based, human
# Method: RNA Extraction, mRNA Purification and Northern Hybridization. mRNA isolation and Northern blot analyses were conducted as described previously (20, 31). PSA cDNA and the cDNA probes were biotinylated using NEBlot Phototope kit (New England Biolabs, Beverly, Mass.), purified via precipitation with 3 M sodium acetate (pH 5.2) and washed with 70% ethanol. After hybridization with cDNA probes, the membrane was incubated with streptavidin then biotinylated with alkaline phosphatase followed by the Phototope-CDP-Star assay (New England Biolabs, Beverly, Mass.), and autoradiographed. The amount of mRNA was quantified by Gel Densitometer (Bio-Rad) and normalized with β-actin as an internal control.
# [3] = system: wild-type recombinant human AR; assay: Competitive [3H]DHT binding assay, recombinant AR protein; details: micromolar concentration range
# [4] = system: dimethylbenzanthracene (DMBA)-induced mammary tumors; details: rats; cited from earlier work
smiles,measurement,setting,value
"c1ccc2c(Cc3c[nH]c4ccccc34)c[nH]c2c1 [DIM, 3,3′-diindolylmethane]",inhibition at 1 µM,"AR; read-out: inhibition of DHT induction of androgen-responsive genes, 1 μM, both MMTV-Luc and pPSA-Luc",> 50%
same,inhibition at 10 µM,"AR; read-out: inhibition of DHT induction of androgen-responsive genes, 10 μM, both MMTV-Luc and pPSA-Luc",> 90%
same,transactivation of reporter genes by compound alone,AR; without DHT,failed to induce transactivation
same,distribution of GFP-AR fluorescence,GFP-AR; DIM alone,predominantly cytoplasmic distribution
same,formation of AR foci in the nucleus,GFP-AR; DIM treatment with DHT,prevented the formation of AR foci
same,inhibition of AR translocation induced by DHT,GFP-AR; co-treatment with 50 μM DIM and 1 nM DHT,partially inhibited
same,incidence of BP-induced tumors of the forestomach,[1],reduced the incidence
same,effects on the growth of PC-3 cells,PC-3 cells,no observable effects
same,inhibition at 50 µM,LNCaP cells,70%
same,incidence of BP-induced pulmonary adenomas,[2],reduced the incidence
same,inhibition of PSA mRNA induction by DHT,PSA gene expression; 24 h co-treatment with DIM,up to 80%
same,decrease in PSA mRNA levels,"PSA gene expression; DIM treatment, concentration- and time-dependent",up to 70%
same,competition with labeled DHT for binding to the AR,[3],competes with labeled DHT for binding to the AR
same,incidence of DMBA-induced mammary tumors,[4],reduced the incidence
